In PubChem BioAssay AID2060620 (Molecular Pharmacology Branch, DTP, NCI, 2025):

System: 328373-195-R-J1-PDC complex spheroids, viability % test/control
Assay: Anticancer human tumor 328373-195-R-J1-PDC patient-derived head and neck squamous carcinoma cell line growth inhibition [CLK]
Conditions: for IC50: curve of first compound; for viability, T/C: stronger effect = lower value; active means viability on the fitted dose curve at most 10% of control; inactive means the rest
In short: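 Multi-cell-type spheroids combined patient-derived tumor cells with HUVEC endothelial cells and human mesenchymal stem cells. Paired agents were dosed in half-log steps down from about clinical Cmax, or from 10 microM where Cmax was unknown.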
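Further: spheroids exposed to the agents for 7 days.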

CC(C)CC(NC(=O)C(Cc1ccccc1)NC(=O)c1cnccn1)B(O)O (centres undefined) + CNC(=O)c1ccc(Nc2nc(OC3CCCC3)c3c(-c4ccc5nc(C)oc5c4)c[nH]c3n2)c(OC)c1
active: viability, T/C (second compound 0.0316 µM, first compound 0.003 µM) 3.15% | viability, T/C (second compound 0.0316 µM, first compound 0.00949 µM) 0.27% | viability, T/C (second compound 0.0316 µM, first compound 0.03 µM) 0.18% | viability, T/C (second compound 0.0316 µM, first compound 0.0949 µM) 0.2% | viability, T/C (second compound 0.0316 µM, first compound 0.3 µM) 0.32% | viability, T/C (second compound 0.1 µM, first compound 0.003 µM) 4.91% | viability, T/C (second compound 0.1 µM, first compound 0.00949 µM) 0.98% | viability, T/C (second compound 0.1 µM, first compound 0.03 µM) 0.14% | viability, T/C (second compound 0.1 µM, first compound 0.0949 µM) 0.16% | viability, T/C (second compound 0.1 µM, first compound 0.3 µM) 1.45% | viability, T/C (second compound 0.316 µM, first compound 0.003 µM) 5.82% | viability, T/C (second compound 0.316 µM, first compound 0.00949 µM) 0.17% | viability, T/C (second compound 0.316 µM, first compound 0.03 µM) 0.11% | viability, T/C (second compound 0.316 µM, first compound 0.0949 µM) 0.14% | viability, T/C (second compound 0.316 µM, first compound 0.3 µM) 0.13% | viability, T/C (second compound 1 µM, first compound 0.000949 µM) 9.47% | viability, T/C (second compound 1 µM, first compound 0.003 µM) 4.37% | viability, T/C (second compound 1 µM, first compound 0.00949 µM) 0.14% | viability, T/C (second compound 1 µM, first compound 0.03 µM) 0.08% | viability, T/C (second compound 1 µM, first compound 0.0949 µM) 0.12% | viability, T/C (second compound 1 µM, first compound 0.3 µM) 1.52% | viability, T/C (second compound 3.16 µM, first compound 0.003 µM) 3.42% | viability, T/C (second compound 3.16 µM, first compound 0.00949 µM) 0.15% | viability, T/C (second compound 3.16 µM, first compound 0.03 µM) 0.09% | viability, T/C (second compound 3.16 µM, first compound 0.0949 µM) 0.24% | viability, T/C (second compound 3.16 µM, first compound 0.3 µM) 0.19% | viability, T/C (second compound 10 µM, first compound 0.003 µM) 2.54% | viability, T/C (second compound 10 µM, first compound 0.00949 µM) 0.2% | viability, T/C (second compound 10 µM, first compound 0.03 µM) 0.64% | viability, T/C (second compound 10 µM, first compound 0.0949 µM) 0.3% | viability, T/C (second compound 10 µM, first compound 0.3 µM) 0.6%
< 0.949 nM: IC50 (second compound 0.1 µM) | IC50 (second compound 0.316 µM) | IC50 (second compound 1 µM) | IC50 (second compound 3.16 µM) | IC50 (second compound 10 µM)
inactive: viability, T/C (second compound 0.0316 µM, first compound 0.000949 µM) 75.7% | viability, T/C (second compound 0.1 µM, first compound 0.000949 µM) 12.8% | viability, T/C (second compound 0.316 µM, first compound 0.000949 µM) 10.9% | viability, T/C (second compound 3.16 µM, first compound 0.000949 µM) 12.4% | viability, T/C (second compound 10 µM, first compound 0.000949 µM) 14.2%
1.43 nM: IC50 (second compound 0.0316 µM)

O=C(c1cc(Cc2n[nH]c(=O)c3ccccc23)ccc1F)N1CCN(C(=O)C2CC2)CC1 + CNC(=O)c1ccc(Nc2nc(OC3CCCC3)c3c(-c4ccc5nc(C)oc5c4)c[nH]c3n2)c(OC)c1
inactive: viability, T/C (second compound 0.0316 µM, first compound 0.0316 µM) 69.1% | viability, T/C (second compound 0.0316 µM, first compound 0.1 µM) 62.5% | viability, T/C (second compound 0.0316 µM, first compound 0.316 µM) 62.2% | viability, T/C (second compound 0.0316 µM, first compound 1 µM) 59.1% | viability, T/C (second compound 0.0316 µM, first compound 3.16 µM) 70.7% | viability, T/C (second compound 0.0316 µM, first compound 10 µM) 52.3% | viability, T/C (second compound 0.1 µM, first compound 0.0316 µM) 13.8% | viability, T/C (second compound 0.1 µM, first compound 0.1 µM) 13.1% | viability, T/C (second compound 0.1 µM, first compound 0.316 µM) 9.71% | viability, T/C (second compound 0.1 µM, first compound 1 µM) 12.3% | viability, T/C (second compound 0.1 µM, first compound 3.16 µM) 13.5% | viability, T/C (second compound 0.1 µM, first compound 10 µM) 11.3% | viability, T/C (second compound 0.316 µM, first compound 0.0316 µM) 10.8% | viability, T/C (second compound 0.316 µM, first compound 0.1 µM) 11.1% | viability, T/C (second compound 0.316 µM, first compound 0.316 µM) 11.7% | viability, T/C (second compound 0.316 µM, first compound 1 µM) 9.06% | viability, T/C (second compound 0.316 µM, first compound 3.16 µM) 11.2% | viability, T/C (second compound 0.316 µM, first compound 10 µM) 10.3% | viability, T/C (second compound 1 µM, first compound 0.0316 µM) 10.3% | viability, T/C (second compound 1 µM, first compound 0.1 µM) 10% | viability, T/C (second compound 1 µM, first compound 0.316 µM) 9.23% | viability, T/C (second compound 1 µM, first compound 1 µM) 12% | viability, T/C (second compound 1 µM, first compound 3.16 µM) 12.6% | viability, T/C (second compound 1 µM, first compound 10 µM) 9.55% | viability, T/C (second compound 3.16 µM, first compound 0.0316 µM) 11.4% | viability, T/C (second compound 3.16 µM, first compound 0.1 µM) 11.2% | viability, T/C (second compound 3.16 µM, first compound 0.316 µM) 10% | viability, T/C (second compound 3.16 µM, first compound 1 µM) 11.5% | viability, T/C (second compound 3.16 µM, first compound 3.16 µM) 14.2% | viability, T/C (second compound 3.16 µM, first compound 10 µM) 9.92% | viability, T/C (second compound 10 µM, first compound 0.0316 µM) 11.5% | viability, T/C (second compound 10 µM, first compound 0.1 µM) 13.2% | viability, T/C (second compound 10 µM, first compound 0.316 µM) 13.2% | viability, T/C (second compound 10 µM, first compound 1 µM) 9.97% | viability, T/C (second compound 10 µM, first compound 3.16 µM) 15.8% | viability, T/C (second compound 10 µM, first compound 10 µM) 12.4%
> 10000 nM: IC50 (second compound 0.0316 µM)
< 31.6 nM: IC50 (second compound 0.1 µM) | IC50 (second compound 0.316 µM) | IC50 (second compound 1 µM) | IC50 (second compound 3.16 µM) | IC50 (second compound 10 µM)
